Source: paper PMC9542285, “Novel amides of mycophenolic acid and some heterocyclic derivatives as immunosuppressive agents” (Journal of Enzyme Inhibition and Medicinal Chemistry, 2022)

Tests used:
[1] = system: PBMCs; assay: In vitro cytotoxicity assay with XTT dye, PBMCs; type: cell-based, human; conditions: Homo sapiens, PBMC, 72 h incubation then 24 h XTT, read-out: IC50 PBMCs (XTT test)
Experimental: (§1) Figure 2. Representative dose-response curve to determine the IC50 of MPA and A2. […] Next, plates were incubated for 24 h with XTT reagent. The conversion of water-soluble yellow tetrazolium XTT salt into orange formazan was monitored by measuring the optical density at 450 nm on microplate spectrophotometer. For XTT assay at least three experiments were performed and values are presented as mean ± SD.
(§2) The cytotoxic effect of derivatives of MPA was measured using in vitro 2,3-bis(2-methoxy-4-nitro-5-sulfophenyl)-2H-tetrazolium-5-carboxanilide (XTT)-based assay (Roche, Basel, Swiss). PBMCs suspended in complete X–VIVO20 medium and T-Jurkat cells suspended in complete RPMI-1640 medium were added on a 96-well plate at a concentration of 5 × 10^5 cells/50 µL/well. […] As a background control we used medium without cells, as a positive control we used cells untreated with compounds. After 48 h for T-Jurkat cells and 72 h for PBMCs of incubation in a humidified atmosphere with 5% CO2 at 37 °C, 50 µL of XTT reagent (freshly prepared according to the manufacturer’s procedure) was added to all samples. Plates were incubated for 24 h (5% CO2 at 37 °C). The conversion of water-soluble yellow tetrazolium XTT salt into orange formazan was monitored by measuring the optical density (OD) at 450 nm on Agilent BioTek Epoch Microplate Spectrophotometer (Agilent Technologies, Santa Clara, CA), with a background wavelength at 690 nm. […] Each sample was performed in triplicates.

[2] = In vitro cytotoxicity assay with XTT dye, T-Jurkat; type: cell-based, human; conditions: human, T-Jurkat cell line, […], trypan blue exclusion
Experimental: as §1, §2

[3] = Dye-based proliferation assay VPD450 (flow cytometry), T-Jurkat; type: cell-based, human; conditions: human, VPD450-labelled T-Jurkat cells, […], trypan blue exclusion
Experimental: (§3) Figure 4. […] Cell proliferation was analysed using flow cytometry.

[4] = system: PBMCs; assay: cells; conditions: Homo sapiens, PBMC, 72 h, read-out: EC50 PBMCs (VPD450 proliferation), PBMCs stimulated with anti-CD3/anti-CD28 beads, 72 h
Experimental: Cell proliferation was analysed using flow cytometry. The results are expressed as the mean ± SD.
PBMCs and T-Jurkat cells were washed twice with warm PBS (37 °C), suspended in fresh PBS at a final concentration of 10–30 × 10^6 cells/mL and labelled with 1 µL of VPD450 (BD Biosciences, Franklin Lakes, NJ) at 37 °C for 15 min. Each 5 min cells were vortexed to provide uniform staining[42]^,[43]. Subsequently, cells were washed with PBS and then with complete medium (X-VIVO20 for PBMCs and RPMI-1640 for T-Jurkat cells). After this step, cells were suspended in fresh complete medium, seeded on 96-well plates (1 × 10^6 cells/well). PBMCs were additionally stimulated with magnetic beads coated with anti-CD3 and anti-CD28 antibodies (Invitrogen, Carlsbad, CA) in 1:0.5 cell:bead ratio. Of 100 µL of examined derivatives of MPA were added to experimental wells to receive final concentrations: 100; 10; 1; 0.1; 0.01 µM. In parallel, stained and not stimulated cells, as well as stained and stimulated cells, were seeded in the same concentration as controls. After 48 h for T-Jurkat and 72 h for PBMCs, cells were analysed with flow cytometer LSRFortessa (BD Biosciences, Franklin Lakes, NJ) and Kaluza C Flow Cytometry Analysis Software (Beckman Coulter, Brea, CA). […] Cell viability was determined at the highest concentration of the tested compound. For this purpose, TC20 cell counter (Biorad) was used with trypan blue exclusion.

[5] = system: T-Jurkat cell line; assay: In vitro cytotoxicity assay with XTT dye, T-Jurkat; type: cell-based, human; conditions: Homo sapiens, 48 h incubation then 24 h XTT, read-out: IC50 T-Jurkat (XTT test)
Experimental: as §1, §2

[6] = system: T-Jurkat cells; assay: Dye-based proliferation assay VPD450 (flow cytometry), T-Jurkat; type: cell-based, human; conditions: Homo sapiens, 48 h
Experimental: as §3

[7] = system: PBMCs; assay: VPD450 proliferation of PBMCs with or without GMP (IMPDH mechanism test); type: cell-based, human; conditions: for Mechanism of action (IMPDH inhibition, GMP reversal): PBMCs, with or without 50 µM GMP, 72 h
Experimental: According to reported experiment, suppression of cell proliferation caused by IMPDH inhibitors in the presence of guanosine source, e.g. gunosine monophosphate (GMP) is reversible.
Figure 5. […] Cell proliferation was analysed using flow cytometry.
Cells proliferation was analyzed using flow cytometry.
(1 picture or pasted object on this page, not shown here)

[8] = Precipitation / solubility of compounds in culture; type: physicochemical; parameters: key to Precipitating compound flag (XTT test, PBMCs) / Precipitating compound flag (VPD450 assay, PBMCs): (↓) – precipitating compound; conditions: for Precipitating compound flag (VPD450 assay, PBMCs) / Precipitating compound flag (XTT test, PBMCs): PBMC culture, DMSO with Tween20; for Solubility in PBMC culture: XTT assay conditions
Experimental: Drug toxicity that affects the cells can cause a variety of serious side effects, including uncontrolled suppression of the immune system. In order to check the cytotoxicity of the tested compounds, the XTT test was performed, the results of which are presented in Table 2. All tested compounds were characterised by lower cytotoxicity than native MPA. Unfortunately, several compounds (marked with ↓) were partially insoluble in culture despite surfactant addition. They were investigated too, but one could not use them as an immunosuppressive drug in their current form. Taking into account the EC50 values obtained in the proliferation tests ([…] staining, Table 3), the compound A2 was selected as the one with the highest immunosuppressive potential and the possibility of its later use in therapy, and is presented in the graphs (Figures 2–4).
To prepare appropriate concentrations of tested compounds, the substances were dissolved in DMSO (Sigma Aldrich, Poland) with 1% addition of Tween20 to obtain final concentration of 0.01 M. The solution was diluted 10-fold and then 5-fold in appropriate medium without additives (RPMI-1640 for T-Jurkat cell line; X-VIVO20 for PBMCs) to obtain the following concentrations: 200; 20; 2; 0.2; 0.02 µM.

Compound: COc1c(C)c2c(c(O)c1C/C=C(\C)CCC(=O)Nc1nc3ccccc3[nH]1)C(=O)OC2 [A3, N-(1H-benzo[d]imidazol-2-yl) mycophenolate]
- IC50 [1]: 94.538 ± 0.047 µM
- viability at 48 h, 100 µM [2]: 74%
- viability at 48 h, 100 µM [3]: 55%
- melting point: 253 to 255 °C (dec.)
- EC50 [4]: 120 µM

Compound: COc1c(C)c2c(c(O)c1C/C=C(\C)CCC(=O)Nc1ccc3ncsc3c1)C(=O)OC2 [A4, N-(benzo[d]thiazol-6-yl) mycophenolate]
- IC50 [1]: 24.639 ± 0.015 µM
- IC50 [5]: 37.789 ± 0.002 µM
- EC50 [6]: 14.73 ± 0.074 µM
- melting point: 175 to 177 °C
- EC50 [4]: 62.26 ± 0.01 µM

Compound: COc1c(C)c2c(c(O)c1C/C=C(\C)CCC(=O)Nc1ccc3scnc3c1)C(=O)OC2 [A5, N-(benzo[d]thiazol-5-yl) mycophenolate]
- IC50 [1]: 45.73 ± 0.023 µM
- IC50 [5]: 75.04 ± 0.005 µM
- EC50 [6]: 36.05 ± 0.18 µM
- melting point: 114 to 117 °C
- EC50 [4]: 76.98 ± 0.01 µM

Compound: COc1c(C)c2c(c(O)c1C/C=C(\C)CCC(=O)Nc1ccc3ocnc3c1)C(=O)OC2 [A6, N-(benzo[d]oxazol-5-yl) mycophenolate]
- IC50 [1]: 55.487 ± 0.028 µM
- IC50 [5]: 31.407 ± 0.002 µM
- EC50 [6]: 13.84 ± 0.069 µM
- melting point: 84 to 87 °C
- EC50 [4]: 58.27 ± 0.021 µM

Compound: COc1c(C)c2c(c(O)c1C/C=C(\C)CCC(=O)NCc1ncccn1)C(=O)OC2 [A7, N-[1-(pirymidin-2-yl)methyl] mycophenolate]
- IC50 [1]: 70.48 ± 0.035 µM
- IC50 [5]: 10.739 ± 0.003 µM
- EC50 [6]: 9.51 ± 0.047 µM
- Mechanism of action (IMPDH inhibition, GMP reversal) [7]: consistent with that of MPA
- melting point: 107 to 110 °C
- EC50 [4]: 29.45 ± 0.025 µM

Compound: COc1ccc2nc(NC(=O)CC/C(C)=C/Cc3c(O)c4c(c(C)c3OC)COC4=O)sc2c1 [A8, N-(6-methoxybenzo[d]thiazol-2-yl) mycophenolate]
- IC50 [1]: 93.196 ± 0.047 µM
- IC50 [5]: 51.124 ± 0.008 µM
- EC50 [6]: 22.04 ± 0.11 µM
- Precipitating compound flag (VPD450 assay, PBMCs) [8]: (↓)
- Precipitating compound flag (XTT test, PBMCs) [8]: (↓)
- Solubility in PBMC culture [8]: limited solubility
- EC50 [4]: 133.5 ± 0.007 µM

Compound: COc1c(C)c2c(c(O)c1C/C=C(\C)CCC(=O)Nc1nc3ccc(C)cc3s1)C(=O)OC2 [A9, N-(6-methylbenzo[d]thiazol-2-yl) mycophenolate]
- IC50 [1]: 94.6 ± 0.047 µM
- IC50 [5]: 85.7 ± 0.004 µM
- EC50 [6]: 22.72 ± 0.113 µM
- Precipitating compound flag (VPD450 assay, PBMCs) [8]: (↓)
- Precipitating compound flag (XTT test, PBMCs) [8]: (↓)
- Solubility in PBMC culture [8]: limited solubility
- melting point: 257 to 260 °C (dec.)
- EC50 [4]: 136.2 ± 0.011 µM

Compound: COc1c(C)c2c(c(O)c1C/C=C(\C)CCC(=O)Nc1nc3cc(C)c(C)cc3s1)C(=O)OC2 [A10, N-(5,6-dimethylbenzo[d]thiazol-2-yl) mycophenolate]
- IC50 [1]: 129.41 ± 0.064 µM
- viability at 48 h, 100 µM [2]: 51%
- EC50 [6]: 26.69 ± 0.133 µM
- melting point: 246 to 247 °C (dec.)
- EC50 [4]: 85.24 ± 0.012 µM

Compound: COc1c(C)c2c(c(O)c1C/C=C(\C)CCC(=O)Nc1nc3ccc(F)cc3s1)C(=O)OC2 [A11, N-(6-fluorobenzo[d]thiazol-2-yl) mycophenolate]
- IC50 [1]: 139.86 ± 0.07 µM
- viability at 48 h, 100 µM [2]: 56%
- EC50 [6]: 63.21 ± 0.316 µM
- Precipitating compound flag (VPD450 assay, PBMCs) [8]: (↓)
- Precipitating compound flag (XTT test, PBMCs) [8]: (↓)
- Solubility in PBMC culture [8]: limited solubility
- melting point: 232 to 236 °C (dec.)
- EC50 [4]: 83.07 ± 0.012 µM

Compound: COc1c(C)c2c(c(O)c1C/C=C(\C)CCC(=O)Nc1nc3ccc(Cl)cc3s1)C(=O)OC2 [A12, N-(6-chlorobenzo[d]thiazol-2-yl) mycophenolate]
- IC50 [1]: 62.975 ± 0.031 µM
- IC50 [5]: 12.833 ± 0.008 µM
- EC50 [6]: 12.16 ± 0.061 µM
- Precipitating compound flag (VPD450 assay, PBMCs) [8]: (↓)
- Precipitating compound flag (XTT test, PBMCs) [8]: (↓)
- Solubility in PBMC culture [8]: limited solubility
- melting point: 261 to 264 °C (dec.)
- EC50 [4]: 38.37 ± 0.017 µM

Compound: COc1c(C)c2c(c(O)c1C/C=C(\C)CCC(=O)Nc1nc3ccc(Br)cc3s1)C(=O)OC2 [A13, N-(6-bromobenzo[d]thiazol-2-yl) mycophenolate]
- IC50 [1]: 63.173 ± 0.032 µM
- IC50 [5]: 58.069 ± 0.002 µM
- EC50 [6]: 12.64 ± 0.063 µM
- melting point: 265 to 267 °C (dec.)
- EC50 [4]: 39.47 ± 0.013 µM

Compound: COc1c(C)c2c(c(O)c1C/C=C(\C)CCC(=O)Nc1nc3ccc(C(F)(F)F)cc3s1)C(=O)OC2 [A14, N-[6-(trifluoromethyl)benzo[d]thiazol-2-yl] mycophenolate]
- IC50 [1]: 81.482 ± 0.041 µM
- IC50 [5]: 34.749 ± 0.003 µM
- EC50 [6]: 12.58 ± 0.063 µM
- melting point: 261 to 264 °C (dec.)
- EC50 [4]: 30.71 ± 0.008 µM

Compound: COc1c(C)c2c(c(O)c1C/C=C(\C)CCC(=O)Nc1nc3ccc([N+](=O)[O-])cc3s1)C(=O)OC2 [A15, N-(6-nitrobenzo[d]thiazol-2-yl) mycophenolate]
- IC50 [1]: 137.63 ± 0.069 µM
- IC50 [5]: 12.717 ± 0.005 µM
- EC50 [6]: 13.37 ± 0.067 µM
- Precipitating compound flag (VPD450 assay, PBMCs) [8]: (↓)
- Precipitating compound flag (XTT test, PBMCs) [8]: (↓)
- Solubility in PBMC culture [8]: limited solubility
- melting point: 278 to 280 °C (dec.)
- EC50 [4]: 44.59 ± 0.013 µM

Compound: COc1c(C)c2c(c(O)c1C/C=C(\C)CCC(=O)Nc1nc3c(OC)cccc3s1)C(=O)OC2 [A16, N-(4-methoxybenzo[d]thiazol-2-yl) mycophenolate]
- IC50 [1]: 54.578 ± 0.027 µM
- viability at 48 h, 100 µM [2]: 69%
- viability at 48 h, 100 µM [3]: 73%
- Precipitating compound flag (VPD450 assay, PBMCs) [8]: (↓)
- Precipitating compound flag (XTT test, PBMCs) [8]: (↓)
- Solubility in PBMC culture [8]: limited solubility
- melting point: 165 to 168 °C
- EC50 [4]: 46.29 ± 0.011 µM

Compound: COc1c(C)c2c(c(O)c1C/C=C(\C)CCC(=O)Nc1nc3c(Cl)cccc3s1)C(=O)OC2 [A18, N-(4-chlorobenzo[d]thiazol-2-yl) mycophenolate]
- IC50 [1]: 74.426 ± 0.037 µM
- IC50 [5]: 10.261 ± 0.001 µM
- EC50 [6]: 11.28 ± 0.056 µM
- Mechanism of action (IMPDH inhibition, GMP reversal) [7]: consistent with that of MPA
- EC50 [4]: 14.7 ± 0.02 µM

Compound: COc1c(C)c2c(c(O)c1C/C=C(\C)CCC(=O)O)C(=O)OC2 [MPA, Mycophenolic acid]
- IC50 [1]: 10.52 ± 0.015 µM
- IC50 [5]: 0.509 ± 0.008 µM
- EC50 [6]: 0.49 ± 0.002 µM
- Effect of GMP addition on proliferation [7]: proliferation increases after the addition of GMP
- EC50 [4]: 0.723 ± 0.011 µM
